Assay results from ChEMBL document CHEMBL5257058, “Passive Membrane Permeability of Sizable Acyclic β-Hairpin Peptides” (ACS Med Chem Lett, 2023).
In brackets after ≈: the same amount, converted by molar mass. Where a SMILES comes first, the peptide text is derived from it. Bridges are numbered along the chain shown (N, C = ends).

How the values were obtained:
[1] = Kinetic solubility of compound in phosphate buffer at pH 7.4 by UV analysis; type: physicochemical; settings: read-out: Kinetic_solubility
[2] = Apparent membrane permeability of the compound in PBS buffer at pH 7.4 measured after 24 hrs by PAMPA assay; type: ADME
[3] = Retention time of the compound by RP-HPLC analysis; type: physicochemical
[4] = Octanol/buffer partition coefficient, logD of the compound at pH 7.4 incubated for 24 hrs by shake flask method based UV analysis; type: physicochemical
[5] = Kinetic solubility of the compound by RP-HPLC analysis

H-RWVVRRDYRFDMGFDYWVWE-OH
solubility kinetic [1]: 20 µM | Papp at 24 h [2]: 2.61 ×10⁻⁶ cm/s | Retention_time [3]: 23 min | logD at 24 h [4]: -1.1

H-RWVKRRDYRGDMGFDYWVWE-OH
solubility kinetic [1]: 1800 µM | Papp at 24 h [2]: 0.02 ×10⁻⁶ cm/s | Retention_time [3]: 19.5 min | logD at 24 h [4]: -1.3

H-RWVWRDYRGDMGFDWVWE-OH
solubility kinetic [1]: 20 µM | Papp at 24 h [2]: 0.01 ×10⁻⁶ cm/s | Retention_time [3]: 23.3 min | logD at 24 h [4]: 0.9

H-RWVARAYGNYGYIDVWHWE-OH
solubility kinetic [1]: 70 µM | Papp at 24 h [2]: 0.38 ×10⁻⁶ cm/s | Retention_time [3]: 21.9 min | logD at 24 h [4]: -1.3

H-RWVWRDYRFDMGFDWVWE-OH
solubility kinetic [1]: 20 µM | Papp at 24 h [2]: 5.28 ×10⁻⁶ cm/s | Retention_time [3]: 25.2 min | logD at 24 h [4]: 0.1

H-RWVWRDLDIATTRDYWVWE-OH
solubility kinetic [1]: 140 µM | Papp at 24 h [2]: 0.2 ×10⁻⁶ cm/s | Retention_time [3]: 23.2 min | logD at 24 h [4]: 0.8

H-RGVARRDYRGDPGFDYWHWE-OH
solubility kinetic [1]: 18000 µM | Papp at 24 h [2]: 0.26 ×10⁻⁶ cm/s | Retention_time [3]: 18.8 min | logD at 24 h [4]: -1.9

H-RWVARRDYRFDMGFDYWVWE-OH
solubility kinetic [1]: 10 µM | Papp at 24 h [2]: 2.18 ×10⁻⁶ cm/s | Retention_time [3]: 23.1 min | logD at 24 h [4]: 0.2

H-RWVARRDYRGDMGFDYWVWE-OH
solubility kinetic [1]: 20 µM | Papp at 24 h [2]: 1.59 ×10⁻⁶ cm/s | Retention_time [3]: 21.5 min | logD at 24 h [4]: 0.6

H-RWVWSPDSSGVAYWVWE-OH
solubility kinetic [1]: 530 µM | Papp at 24 h [2]: 0.09 ×10⁻⁶ cm/s | Retention_time [3]: 22.8 min | logD at 24 h [4]: 0.9

H-RWVARRDYRFDMGFNYWVWE-OH
solubility kinetic [1]: 50 µM | Papp at 24 h [2]: 4.04 ×10⁻⁶ cm/s | Retention_time [3]: 22.6 min | logD at 24 h [4]: 0.7

H-RWVARRDYRGDMGFDYWHWE-OH
solubility kinetic [1]: 40 µM | Papp at 24 h [2]: 0.07 ×10⁻⁶ cm/s | Retention_time [3]: 20.3 min | logD at 24 h [4]: 0.7

H-RWVVRRDYRGDMGFDYWVWE-OH
solubility kinetic [1]: 30 µM | Papp at 24 h [2]: 0.04 ×10⁻⁶ cm/s | Retention time [3]: 20.6 min | logD at 24 h [4]: -0.9

CSCC[C@@H]1NC(=O)[C@H](CC(=O)O)NC(=O)[C@H](Cc2ccccc2)NC(=O)[C@H](CCCNC(=N)N)NC(=O)[C@H](Cc2ccc(O)cc2)NC(=O)[C@H](CC(=O)O)NC(=O)[C@H](CCCNC(=N)N)NC(=O)[C@H](CCCNC(=N)N)NC(=O)[C@H](C)NC(=O)[C@@H](NC(=O)[C@H](Cc2c[nH]c3ccccc23)NC(=O)[C@@H](N)CCCNC(=N)N)CSSC[C@@H](C(=O)N[C@@H](Cc2c[nH]c3ccccc23)C(=O)N[C@@H](CCC(=O)O)C(=O)O)NC(=O)[C@H](Cc2c[nH]c3ccccc23)NC(=O)[C@H](Cc2ccc(O)cc2)NC(=O)[C@H](CC(=O)O)NC(=O)[C@H](Cc2ccccc2)NC(=O)CNC1=O (H-RWCARRDYRFDMGFDYWCWE-OH; disulfide 3-18)
solubility kinetic [1]: 10 µM (≈ 27.6 µg/mL) | Papp at 24 h [2]: 3.71 ×10⁻⁶ cm/s | Retention_time [3]: 22 min | logD at 24 h [4]: -0.6

H-RWVARAYGNYWYIDVWHWE-OH
solubility kinetic [1]: 2 µM | Papp at 24 h [2]: 4.15 ×10⁻⁶ cm/s | Retention_time [3]: 24.1 min | logD at 24 h [4]: 0.6

H-RWVAREGMNTDWYFDYWHWE-OH
solubility kinetic [1]: 20 µM | Papp at 24 h [2]: 0.42 ×10⁻⁶ cm/s | Retention_time [3]: 23.3 min | logD at 24 h [4]: 1.2

H-RWVAREGGWFGELAFNYWVWE-OH
solubility kinetic [1]: 260 µM | Papp at 24 h [2]: 2.05 ×10⁻⁶ cm/s | Retention_time [3]: 21.2 min | logD at 24 h [4]: -0.5

H-RWVARRDYRGDMGFNYWVWE-OH
solubility kinetic [1]: 60 µM | Papp at 24 h [2]: 0.02 ×10⁻⁶ cm/s | Retention_time [3]: 20.9 min | logD at 24 h [4]: -0.8

H-RWVARRDYRFDMGFDYWHWE-OH
solubility kinetic [1]: 10 µM | Papp at 24 h [2]: 2.55 ×10⁻⁶ cm/s | Retention_time [3]: 21.8 min | logD at 24 h [4]: -0.5

H-RWVAREGMNTDGYFDYWHWE-OH
solubility kinetic [1]: 690 µM | Papp at 24 h [2]: 0.02 ×10⁻⁶ cm/s | Retention_time [3]: 21.1 min | logD at 24 h [4]: 0.3

CC(=O)CC(c1ccccc1)c1c(O)c2ccccc2oc1=O (stereo not given) [WARFARIN]
Papp at 24 h [2]: 7.06 ×10⁻⁶ cm/s

H-RWVKRRDYRFDMGFDYWVWE-OH
solubility kinetic [1]: 20 µM | Papp at 24 h [2]: 0.14 ×10⁻⁶ cm/s | kinetic solubility [5]: 21900 µM | logD at 24 h [4]: -0.4
